Data reported in patent US20110190503A1, “Thiazolopyridin-2-yloxy-phenyl and thiazolopyrazin-2-yloxy-phenyl amines as modulators of leukotriene A4 hydrolase” (Janssen Pharmaceutical NV, priority 2008, published 2011).
Where two headings read alike, the source gives them in different places.

Experiments:
[1] = target: T1, recombinant human LTA4 hydrolase (rhLTA4H) (Homo sapiens, UniProt P09960); assay: Recombinant human LTA4 hydrolase assay for LTA4 hydrolase inhibitor activity; assay type: biochemical
T1 construct: made in house; host or cells: Spodoptera frugiperda (Sf-9) cells, recombinant baculovirus (pFastBac1)
T1 sequence (P09960 1-611): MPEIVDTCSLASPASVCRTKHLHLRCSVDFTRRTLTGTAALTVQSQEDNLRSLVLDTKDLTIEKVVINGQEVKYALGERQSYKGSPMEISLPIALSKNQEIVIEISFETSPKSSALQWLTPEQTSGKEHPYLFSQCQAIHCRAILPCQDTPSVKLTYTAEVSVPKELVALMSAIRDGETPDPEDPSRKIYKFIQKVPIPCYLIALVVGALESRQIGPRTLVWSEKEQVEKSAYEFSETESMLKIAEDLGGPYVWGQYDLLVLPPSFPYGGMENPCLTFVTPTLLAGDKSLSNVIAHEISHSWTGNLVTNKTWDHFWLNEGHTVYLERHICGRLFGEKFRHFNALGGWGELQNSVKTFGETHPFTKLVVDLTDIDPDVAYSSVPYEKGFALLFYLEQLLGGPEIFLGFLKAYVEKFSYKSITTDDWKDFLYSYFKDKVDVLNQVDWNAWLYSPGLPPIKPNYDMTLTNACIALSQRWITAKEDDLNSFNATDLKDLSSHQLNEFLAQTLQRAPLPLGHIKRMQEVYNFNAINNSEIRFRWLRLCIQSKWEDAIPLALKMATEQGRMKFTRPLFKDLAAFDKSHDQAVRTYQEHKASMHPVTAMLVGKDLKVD
Method in brief: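 LTB4 formed from LTA4 substrate (free acid from the methyl ester) was quantified by enzyme immunoassay after a 30 min rt reaction. Enzyme was 10 ng Sf-9-expressed human LTA4 hydrolase, pre-incubated 10 min with compound.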

[2] = tested on: LTB4 production by calcium ionophore-stimulated human blood; assay: LTB4 production by calcium ionophore-stimulated human blood for LTA4H inhibitor activity; assay type: cell-based
Method: Assay 3: LTB4 Production by Calcium Ionophore-Stimulated Human Blood for LTA4H Inhibitor Activity
Human blood was collected from healthy donors in heparin-containing syringes. The blood was diluted 1:1 with RPMI-1640 medium, and 200-μL aliquots of the diluted blood were added to wells of a 96-well microtiter plate. LTA4H inhibitor test compounds were prepared at different concentrations in RPMI-1640 medium containing 1% DMSO, and 20 μL of each test solution was added to a well containing diluted whole blood (final DMSO concentration of 0.1%). After the microtiter plate contents were incubated for 15 min at 37° C. in a humidified incubator, calcium ionophore A23187 (Sigma Chemical Co., St. Louis, Mo.) was added to each sample well (final concentration=7 μg/mL). The incubation was continued under the same conditions for an additional 30 min to allow LTB4 formation. The reaction was terminated by centrifugation (833×g, 10 min at 4° C.), and supernatants were analyzed for LTB4 by a commercially available enzyme-linked immunoassay (Cayman Chemical Co.) according to the manufacturer's instructions. Positive controls, under essentially identical conditions but without addition of an inhibitor compound, and negative unstimulated controls, containing all assay components except calcium ionophore, were routinely run in each experiment. IC50 values for compounds tested in this assay were determined by nonlinear regression of the activity data at different compound concentrations using Graphpad Prism 4.0, one site binding competition, and are presented in Table 3. The number of determinations made is indicated in parentheses following each value.

[3] = tested on: ex vivo stimulated LTB4 production; assay: Murine arachidonic acid-induced inflammation model: ex vivo stimulated LTB4 production (% Inh. LTB4); details: Mus musculus; female Balb/c mice, 30 mg/kg oral gavage; blood taken 3 h after arachidonic acid, ex vivo A23187 stimulation; number of determinations in parentheses
Method in brief: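 Female Balb/c mice got 30 mg/kg orally in 20% cyclodextran/H2O. Heparinized blood in RPMI-1640 was stimulated with A23187 ([…]) for 30 min at 37 °C. LTB4 was measured by ELISA as % inhibition versus vehicle-dosed mice.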

[4] = rhLTA4H, LTA4 substrate, LTB4 by immunoassay, single determination or average, read-out: IC50
[5] = human blood diluted 1:1, calcium ionophore A23187, LTB4 by immunoassay, n in parentheses, read-out: IC50

SMILES	IC50 [1, 4] [µM]	IC50 [2, 5] [µM]	inhibition at 30 mg/kg [3] [%]	IC50 [1] [µM]	IC50 ([2]; Homo sapiens) [µM]
CC(=O)N1C[C@H]2C[C@@H]1CN2Cc1ccc(Oc2nc3ncccc3s2)cc1 [Example 265, 2-(4-{[(1R,4R)-5-Acetyl-2,5-diazabicyclo[2.2.1]hept-2-yl]methyl}phenoxy)[1,3]thiazolo[4,5-b]pyridine]	0.011	0.072	84.4	–	–
O=C1CCCN1C1CCN(Cc2ccc(Oc3nc4ncccc4s3)cc2)CC1 [Example 83, 1-{1-[4-([1,3]Thiazolo[4,5-b]pyridin-2-yloxy)benzyl]piperidin-4-yl}pyrrolidin-2-one]	0.0063	0.134	81	–	–
CC(=O)N1CC2CN(CCc3ccc(Oc4nc5ncccc5s4)cc3)CC2C1 (stereo not drawn) [Example 73, 2-{4-[2-(5-Acetylhexahydropyrrolo[3,4-c]pyrrol-2(1H)-yl)ethyl]phenoxy}[1,3]thiazolo[4,5-b]pyridine]	0.012	0.227	85.7	–	–
NC(=O)N1C[C@@H]2C[C@H]1CN2CCc1ccc(Oc2nc3ncccc3s2)cc1 [Example 45, (1S,4S)-5-{2-[4-([1,3]Thiazolo[4,5-b]pyridin-2-yloxy)phenyl]ethyl}-2,5-diazabicyclo[2.2.1]heptane-2-carboxamide]	0.0039	0.256	86.8	–	–
NC(=O)N1C[C@@H]2C[C@H]1CN2Cc1ccc(Oc2nc3ncccc3s2)cc1 [Example 106, (1S,4S)-5-[4-([1,3]Thiazolo[4,5-b]pyridin-2-yloxy)benzyl]-2,5-diazabicyclo[2.2.1]heptane-2-carboxamide]	0.0035	0.141	90.5	–	–
NC(=O)N1C[C@H]2C[C@@H]1CN2Cc1ccc(Oc2nc3ncccc3s2)cc1 [Example 266, (1R,4R)-5-[4-([1,3]Thiazolo[4,5-b]pyridin-2-yloxy)benzyl]-2,5-diazabicyclo[2.2.1]heptane-2-carboxamide]	0.002	0.154	78.6	–	–
CC(=O)N1C[C@H]2C[C@@H]1CN2CCOc1ccc(Oc2nc3ncccc3s2)cc1 [Example 267, 2-(4-{2-[(1R,4R)-5-Acetyl-2,5-diazabicyclo[2.2.1]hept-2-yl]ethoxy}phenoxy)[1,3]thiazolo[4,5-b]pyridine]	0.003	0.057	83.4	–	–
NC(=O)C1CCN(CCOc2ccc(Oc3nc4ncccc4s3)cc2)CC1 [Example 31, 1-{2-[4-([1,3]Thiazolo[4,5-b]pyridin-2-yloxy)phenoxy]ethyl}piperidine-4-carboxamide]	0.029	0.053	79.8	–	–
CC(=O)N[C@H]1C[C@H]2CC[C@@H](C1)N2Cc1ccc(Oc2nc3ncccc3s2)cc1 [Example 116, meso-N-{(3-endo)-8-[4-([1,3]Thiazolo[4,5-b]pyridin-2-yloxy)benzyl]-8-azabicyclo[3.2.1]oct-3-yl}acetamide]	–	–	81	0.001 ± 0.00051	0.019
CC(=O)N[C@@H]1C[C@H]2CC[C@@H](C1)N2Cc1ccc(Oc2nc3ncccc3s2)cc1 [Example 109, meso-N-{(3-exo)-8-[4-([1,3]Thiazolo[4,5-b]pyridin-2-yloxy)benzyl]-8-azabicyclo[3.2.1]oct-3-yl}acetamide]	–	–	84.8	0.00097	0.087
CC(=O)N1C[C@@H]2C[C@H]1CN2CCc1ccc(Oc2nc3ncccc3s2)cc1 [Example 75, 2-(4-{2-[(1S,4S)-5-Acetyl-2,5-diazabicyclo[2.2.1]hept-2-yl]ethyl}phenoxy)[1,3]thiazolo[4,5-b]pyridine]	0.012	0.299	89.5	–	–
CC(=O)N1C[C@H]2CC[C@@H](C1)N2CCc1ccc(Oc2nc3ncccc3s2)cc1 [Example 55, meso-2-(4-{2-[3-Acetyl-3,8-diazabicyclo[3.2.1]oct-8-yl]ethyl}phenoxy)[1,3]thiazolo[4,5-b]pyridine]	0.0048	0.099	83.7	–	–
O=C1CCCN1C1CCN(CCOc2ccc(Oc3nc4ncccc4s3)cc2)CC1 [Example 32, 1-(1-{2-[4-([1,3]Thiazolo[4,5-b]pyridin-2-yloxy)phenoxy]ethyl}piperidin-4-yl)pyrrolidin-2-one]	0.0089	0.008	89	–	–
CC(=O)N1C[C@@H]2C[C@H]1CN2CCOc1ccc(Oc2nc3ncccc3s2)cc1 [Example 14, 2-(4-{2-[(1S,4S)-5-Acetyl-2,5-diazabicyclo[2.2.1]hept-2-yl]ethoxy}phenoxy)[1,3]thiazolo[4,5-b]pyridine]	0.0075 ± 0.0046	0.079	84	–	–
CC(=O)N1C[C@@H]2C[C@H]1CN2Cc1ccc(Oc2nc3ncc(C)cc3s2)cc1 [Example 121, 2-(4-{[(1S,4S)-5-Acetyl-2,5-diazabicyclo[2.2.1]hept-2-yl]methyl}phenoxy)-6-methyl[1,3]thiazolo[4,5-b]pyridine]	0.038 ± 0.017	0.088	83	–	–
